From publication PMC9960827, “Cloning and Characterization of Trypanosoma congolense and T. vivax Nucleoside Transporters Reveal the Potential of P1-Type Carriers for the Discovery of Broad-Spectrum Nucleoside-Based Therapeutics against Animal African Trypanosomiasis” (International Journal of Molecular Sciences, 2023)
Read-outs that look alike come from different tables or passages of the source. Marks after values point to notes of the source that are not given here.

Columns and labels:
L. mexicana Cas9 = assay: Resazurin drug sensitivity assay, LmexCas9; type: cell-based, Leishmania mexicana; details: resazurin, promastigotes; read-out: LmexCas9 EC50
Experimental: (§1) EC50 values were determined by plotting to an equation for a sigmoid curve with variable slope (GraphPad Prism 8). All values were the average of at least three independent determinations on different days.

L. mexicana SUPKO+TcoAT1 = assay: microbe, parasite or virus in culture; type: cell-based, Leishmania mexicana; details: for SUPKO+TcoAT1 RF (SUPKO): Resistance Factor relative to SUPKO; for EC50: resazurin, promastigotes, read-out: SUPKO+TcoAT1 EC50
Experimental: as §1

L. mexicana SUPKO+TvxNT3 = assay: microbe, parasite or virus in culture; type: cell-based, Leishmania mexicana; details: for SUPKO+TvxNT3 RF (SUPKO): Resistance Factor relative to SUPKO; for EC50: resazurin, promastigotes, read-out: SUPKO+TvxNT3 EC50
Experimental: as §1

L. mexicana SUPKO = assay: microbe, parasite or virus in culture; type: cell-based, Leishmania mexicana; details: for SUPKO RF (Cas9): Resistance Factor = EC50(SUPKO)/EC50(Cas9); for EC50: resazurin, promastigotes, read-out: SUPKO EC50
Experimental: as §1

T. congolense IL3000 [1] = assay: Alamar Blue (resazurin) assay, T. congolense IL3000; type: cell-based, Trypanosoma congolense; details: BSF, resazurin; read-out: T. congolense IL3000 EC50
Experimental: as §1

T. congolense 6C3 [2] = assay: microbe, parasite or virus in culture; type: cell-based, Trypanosoma congolense; details: for EC50: diminazene resistant strain, resazurin, read-out: T. congolense 6C3 EC50; for T. congolense 6C3 RF: resistance factor = EC50 (test strain)/EC50(control strain)
Experimental: as §1

T.b.b. B48 = assay: Alamar Blue (resazurin) assay, T. b. brucei B48; type: cell-based, Trypanosoma brucei brucei; details: multidrug-resistant strain, resazurin; read-out: T.b.b. B48 EC50
Experimental: as §1

T. evansi = assay: Alamar Blue (resazurin) assay, T. evansi; type: cell-based, Trypanosoma evansi; details: resazurin; read-out: T. evansi EC50
Experimental: as §1

T. equiperdum = assay: Alamar Blue (resazurin) assay, T. equiperdum; type: cell-based, Trypanosoma equiperdum; details: resazurin; read-out: T. equiperdum EC50
Experimental: as §1

[3] = system: human embryonic kidney (HEK) cells; assay: Resazurin toxicity assay on human embryonic kidney cells; type: cell-based; details: for SI T. congolense: selectivity index = EC50 (HEK cells)/EC50 (T. congolense); for SI T. equiperdum: selectivity index = EC50 (HEK cells)/EC50 (T. equiperdum); for SI T. evansi: selectivity index = EC50 (HEK cells)/EC50 (T. evansi)
Experimental: as §1

T. vivax [4] = system: T. vivax; set-up: method as in Mabille et al. [69]; details: added for comparison only; ref Mabille et al. [69]; cited from earlier work
[5] = biological target: T. congolense adenosine transporter; assay: [3H]-adenosine uptake and its inhibition in T. congolense IL3000 bloodstream forms; type: cell-based, Trypanosoma congolense; details: for Ki: 0.05 µM [3H]-adenosine, 30 s, IC50 converted to Ki, read-out: Ki on the transport of [3H]-adenosine; for ΔG0, Gibbs free energy of interaction: calculated from Km or Ki
Experimental: (§2) Uptake assays using radiolabeled trypanocides and/or nucleosides were carried out as described previously. Briefly, parasite cultures were harvested, washed twice in assay buffer (33 mM HEPES, 98 mM NaCl, 4.6 mM KCl, 0.5 mM CaCl2, 0.07 mM MgSO4, 5.8 mM NaH3PO4, 0.03 mM MgCl2, 23 mM NaHCO3, 14 mM D-glucose, pH 7.3), then resuspended and adjusted to a density of 1 × 10^8 cells/mL in assay buffer. The radiolabeled permeant in the presence or absence of different concentrations of potential inhibitors reconstituted in 100 μL assay buffer was deposited on top of 250 μL oil mix in microcentrifuge tubes; 1 × 10^7 parasites in 100 μL assay buffer were added to the tube and incubated for a pre-determined interval. The reaction was stopped by the addition of 1 mL of a high concentration of ice-cold unlabeled substrate in assay buffer (‘stop solution’) and centrifugation, or by immediate centrifugation at […] as appropriate. The microcentrifuge tubes were flash-frozen, and the bottom of each tube containing the cell pellet was cut off and transferred to a scintillation vial. Cell pellets were lysed in 2% SDS, after which scintillation fluid (Scintlogic U, Lablogic) was added, followed by overnight incubation in the dark. Scintillation was measured in a 300SL (Hidex) scintillation counter (Hidex). All the assays were conducted in triplicate and analysis was carried out using Microsoft Excel and GraphPad Prism. All kinetic parameters were obtained on at least 3 separate occasions.
(§3) The dose-dependent uptake assay allowed for the affinity of nucleoside analogs to different nucleoside transporters to be determined by measuring the extent to which the analogs compete with and inhibit the uptake of radiolabel adenosine. This allowed for the determination of biochemical parameters such as Km and Vmax through the application of the Michaelis–Menten equation V0 = Vmax([substrate]/([substrate] + Km)). The 50% Inhibitory Concentration (IC50) of the purines and pyrimidines and their analogs was determined from non-linear regression to sigmoid curves with variable slope (Prism 8), and the IC50 of the inhibitor and the Km of the labeled permeant were then used to calculate the inhibition constant (Ki) of the analogs through the Cheng–Prusoff equation: Ki = IC50/(1 + (L/Km)), where L denotes the radiolabel concentration. The calculated Ki was in turn used to determine the Gibbs free energy (ΔG^0) of the inhibitor–transporter interaction using the equation: ΔG^0 = -RTln(Ki), where R represents the gas constant and T symbolizes the absolute temperature in Kelvin [104].

TcoAT1 = type: cell-based, Trypanosoma congolense; details: for Ki: 0.05 µM [3H]-adenosine, 10 s, IC50 converted to Ki, read-out: Ki on the transport of [3H]-adenosine
Description: The information for the T. congolense adenosine transporter (TcoAT1) and four putative T. vivax nucleoside transporters was obtained in the TritrypDB (tritrypdb.org/tritrypdb) genome database. Primers were designed to flank each gene upstream of the 5′ end (forward) and downstream of the 3′ end (reverse) as described (primer sequences in Supplementary Table S2). Following amplification from the genomic DNA of T. congolense or T. vivax, DNA for each extracted gene was ligated into the pNUS-HcN expression vector doubly digested with NdeI using the NEBuilder kit according to the manufacturer’s instructions (New England Biolabs). Construct was transformed into competent E. coli cells, and ligation was confirmed by restriction enzyme digestion of isolated plasmid DNA followed by Sanger sequencing (Source BioScience, Nottingham, UK). Confirmed plasmids were then transfected into L. mexicana cell line in which both NT1 and NT2 were doubly knocked out (SUPKO) and derived from L. mexicana Cas9 [64] as described. Clones grown in medium containing 50 μg/mL neomycin (G418) were collected for further confirmation by PCR with genomic DNA using a forward primer of the transporter gene and a reverse primer of the plasmid.
as §2, §3

T. vivax [6] = assay: T. vivax EC50 (from Mabille et al.); type: cell-based, Trypanosoma vivax; details: from Table 8 data
T. congolense IL3000 [7] = system: T. congolense IL3000; set-up: method as in Hulpia et al. [38]; details: values marked *; ref Hulpia et al. [38]; cited from earlier work
T. congolense 6C3 [8] = system: T. congolense 6C3; set-up: method as in Hulpia et al. [38]; details: values marked *; ref Hulpia et al. [38]; cited from earlier work
[9] = resazurin, 96 well plates, read-out: HEK EC50

Structure (SMILES) | EC50 (L. mexicana Cas9) [nM] | SUPKO+TcoAT1 RF (SUPKO) (L. mexicana SUPKO+TcoAT1) | EC50 (L. mexicana SUPKO+TcoAT1) [nM] | SUPKO+TvxNT3 RF (SUPKO) (L. mexicana SUPKO+TvxNT3) | EC50 (L. mexicana SUPKO+TvxNT3) [nM] | SUPKO RF (Cas9) (L. mexicana SUPKO) | EC50 (L. mexicana SUPKO) [nM] | EC50 (T. congolense IL3000 [1]) [nM] | EC50 (T. congolense 6C3 [2]) [nM] | T. congolense 6C3 RF (T. congolense 6C3 [2]) | EC50 (T.b.b. B48) [nM] | EC50 (T. evansi) [nM] | EC50 (T. equiperdum) [nM] | EC50 [3, 9] [nM] | SI T. congolense [3] | SI T. equiperdum [3] | SI T. evansi [3] | EC50 (T. vivax [4]) [nM] | Ki [5] [nM] | ΔG0, Gibbs free energy of interaction [5] [kcal/mol] | further results
Nc1ncnc2c1c(Cl)cn2[C@@H]1O[C@H](CO)[C@@H](O)[C@H]1O [FH3169] | 230 ± 5 | 1.64 | 9410 ± 560 | 0.97 | 15900 ± 2500 | 67.7 | 15400 ± 2700 | 860 ± 120 | 750 ± 140 | 0.87 | 1840 ± 330 | 620 ± 60 | 120 ± 18 | 4550 ± 190 | 5.3 | 37 | 7.4 | 53 ± 7 |  |  | 
Nc1ncnc2c1c(I)cn2[C@@H]1O[C@H](CO)C[C@H]1O [FH8496] | 51800 ± 10300 | >2.2 | 23900 ± 5600 | >1.2 | 40000 ± 9200 | 1.01 | 52600 | 5.4 ± 1 | 3 ± 0.2 | 0.56 | 24 ± 2 | 3.7 ± 1.2 | 1.5 ± 0.5 |  | 902 | 3260 | 1340 | 56 ± 1 | 46200 ± 1700 | -5.9 | Ki (TcoAT1): 135000 ± 11000 nM; EC50 [3]: 4910 ± 30 nM
C#Cc1cn([C@@H]2O[C@H](CO)C[C@H]2O)c2ncnc(N)c12 [FH8505] | 92700 ± 4300 | >1.1 | 89900 ± 12500 | >1.25 | 80000 ± 7700 | >1.08 | > 100000 | 17 ± 2 | 8 ± 2 | 0.46 ^a | 31 ± 4 | 7.8 ± 2 | 2.6 ± 0.8 |  | 68 | 446 | 151 | 160 ± 10 |  |  | fold higher EC50 against T. vivax compared to T. congolense (T. vivax [6]): 10–165 fold; EC50 [3]: 1170 ± 60 nM
Nc1ncnc2c1c(F)cn2[C@@H]1O[C@H](CO)C[C@H]1O [FH8517] | 3090 ± 40 | 1.64 | 6100 ± 700 | 1.06 | 9420 ± 1410 | 3.22 | 9960 ± 2040 | 5.2 ± 0.3 | 3.1 ± 0.3 | 0.60 | 13 ± 2 | 4 ± 0.6 | 0.52 ± 0.11 |  | 330 | 3310 | 431 | 500 ± 10 | 98100 ± 2300 | -5.47 | Ki (TcoAT1): 229000 ± 15000 nM; ΔG0 (TcoAT1; Gibbs free energy of binding, from Km or Ki): -4.97 kcal/mol; EC50 [3]: 1710 ± 110 nM
CC(C)Oc1ncnc2c1c(Cl)cn2[C@@H]1O[C@H](CO)[C@@H](O)[C@H]1O [FH9531] | > 100000 |  | > 100000 |  | > 100000 |  | > 100000 |  |  | 0.80 |  |  |  |  |  |  |  | 120 ± 10 |  |  | EC50 (T. congolense IL3000 [7]): 4040 ± 360 nM; EC50 (T. congolense 6C3 [8]): 3230 ± 360 nM
C=Cc1cn([C@@H]2O[C@H](CO)C[C@H]2O)c2ncnc(N)c12 [FH10659] | > 100000 |  | > 100000 |  | > 100000 |  | > 100000 | 56 ± 4 | 40 ± 3 | 0.70 |  | 38 ± 1.5 | 11 ± 1 |  |  |  |  | 1570 ± 430 | 28500 ± 8100 | -6.19 | Ki (TcoAT1): 59300 ± 4300 nM; fold higher EC50 against T. vivax compared to T. congolense (T. vivax [6]): 10–165 fold
Nc1ncnc2c1ccn2[C@H]1C[C@H](O)[C@@H](CO)O1 [FH10677] |  |  |  |  |  |  |  | 43300 ± 14500 | 10900 ± 2300 | 0.25 | 38000 ± 2300 | > 100000 | 17400 ± 2300 | > 200000 | >4.6 | >12 |  | > 64000 |  |  | 
Nc1ncnc2c1c(Br)cn2[C@H]1C[C@H](O)[C@@H](CO)O1 [FH10679] |  |  |  |  |  |  |  | 510 ± 90 | 310 ± 70 | 0.60 | 1040 ± 190 | 1740 ± 530 | 67 ± 13 | > 200000 | >390 | >3000 | >115 | 4300 ± 900 |  |  | 
Nc1ncnc2c1c(Br)cn2[C@@H]1O[C@H](CO)[C@@H](O)[C@H]1O [TH1003] | 2430 ± 140 | >1.4 | 71100 ± 5000 |  | > 100000 | >41.2 | > 100000 | 790 ± 140 | 520 ± 31 | 0.66 | 1400 ± 90 | 480 ± 60 | 85 ± 26 | 2370 ± 120 | 3.0 | 28 | 4.9 | 740 ± 40 |  |  | 
